Compound: CC1=CC(=C(N1C2=CC=C(C=C2)Cl)C)C(=O)CN3CCCCC3 [IU1-47] + O=C(CCCCCCC(=O)Nc1ccccc1)NO [Vorinostat] (partner 1 µM)
Experiment: relative viability (nuclei count vs DMSO), 5 days (fraction); higher = more cells survive
Conditions: first compound 0.08 µM
Outline: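 Nuclei were stained with Hoechst during a one-step fixation (final 0.05% Triton X-100, 1% formaldehyde, 1 ug/ml Hoechst) carried out 5 days after dosing, then counted on 4× images. The cells, lung cancer lines in 1536-well plates, had been dosed by pin tool the day after seeding with one drug alone or a fixed anchor-drug dose plus five library-drug doses (not always all listed) in √10 steps. Relative viability is the nuclei count in treated wells divided by that in vehicle wells, and each value is the median of duplicate plates.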

First: NCI-H522
Second: NCI-H727
The relative viability of the first is lower: 0.95 for the first, 1.26 for the second.

Going from NCI-H1650 to NCI-H1993, the relative viability rises from 0.631 to 0.635.

First: SW 1573
Second: NCI-H838
The relative viability of the first is lower: 0.736 for the first, 0.768 for the second.

Compared with LCLC-103H, NCI-H520 is higher in relative viability: 0.748 for the first, 0.783 for the second.

Going from NCI-H2126 to EMC-BAC-2, the relative viability falls from 0.895 to 0.456.

Compared with NCI-H2085, HCC-366 is lower in relative viability: 0.853 for the first, 0.298 for the second.

Compared with NCI-H1666, NCI-H596 is lower in relative viability: 0.961 for the first, 0.715 for the second.

First: LK-2
Second: NCI-H2087
The relative viability of the first is lower: 0.21 for the first, 0.902 for the second.

Compared with NCI-H2342, SK-MES-1 is higher in relative viability: 0.833 for the first, 1.09 for the second.

Compared with H3255, COR-L23 is lower in relative viability: 0.918 for the first, 0.383 for the second.

Going from COR-L 105 to IA-LM, the relative viability falls from 1.02 to 0.951.

First: LOU-NH91
Second: ChaGo-K-1
The relative viability of the first is higher: 1.09 for the first, 0.835 for the second.

Going from NCI-H2170 to NCI-H2405, the relative viability rises from 0.997 to 1.06.

Going from HOP-62 to HCC-44, the relative viability rises from 0.693 to 1.16.

Compared with SW 900, LU99A is higher in relative viability: 0.361 for the first, 0.557 for the second.

Going from BEN to NCI-H1648, the relative viability falls from 0.605 to 0.455.

HCC-78 showed a relative viability of 0.557.

Same assay, conditions: first compound 0.253 µM

Going from NCI-H522 to NCI-H727, the relative viability rises from 0.903 to 1.38.

First: NCI-H1650
Second: NCI-H1993
The relative viability of the first is lower: 0.523 for the first, 0.858 for the second.

Going from SW 1573 to NCI-H838, the relative viability rises from 0.732 to 0.746.

Compared with LCLC-103H, NCI-H520 is lower in relative viability: 0.819 for the first, 0.671 for the second.

Compared with NCI-H2126, EMC-BAC-2 is lower in relative viability: 0.775 for the first, 0.488 for the second.

First: NCI-H2085
Second: HCC-366
The relative viability of the first is higher: 0.861 for the first, 0.283 for the second.

Going from NCI-H1666 to LK-2, the relative viability falls from 0.984 to 0.195.

First: NCI-H2087
Second: NCI-H2342
The relative viability of the first is lower: 0.716 for the first, 0.836 for the second.

Going from SK-MES-1 to H3255, the relative viability falls from 1.15 to 0.883.

Going from COR-L23 to COR-L 105, the relative viability rises from 0.514 to 1.01.

Going from IA-LM to LOU-NH91, the relative viability falls from 1.13 to 1.04.

Going from ChaGo-K-1 to NCI-H2170, the relative viability rises from 0.766 to 0.973.

Going from NCI-H2405 to HOP-62, the relative viability falls from 1.08 to 0.675.

First: HCC-44
Second: LU99A
The relative viability of the first is higher: 1.09 for the first, 0.513 for the second.

First: BEN
Second: NCI-H1648
The relative viability of the first is higher: 0.653 for the first, 0.402 for the second.

With HCC-78 the relative viability was 0.432.

Same assay, conditions: first compound 0.8 µM

First: NCI-H522
Second: NCI-H727
The relative viability of the first is lower: 0.884 for the first, 1.21 for the second.

Going from NCI-H1650 to NCI-H1993, the relative viability rises from 0.62 to 0.819.

First: SW 1573
Second: NCI-H838
The relative viability of the first is lower: 0.779 for the first, 0.834 for the second.

Compared with LCLC-103H, NCI-H520 is lower in relative viability: 0.82 for the first, 0.681 for the second.

Compared with NCI-H2126, EMC-BAC-2 is lower in relative viability: 0.801 for the first, 0.42 for the second.

Going from NCI-H2085 to HCC-366, the relative viability falls from 0.791 to 0.378.

Compared with NCI-H1666, NCI-H596 is lower in relative viability: 1.08 for the first, 0.662 for the second.

Going from LK-2 to NCI-H2087, the relative viability rises from 0.175 to 0.83.
